Measurements from publication PMC10461232, “Structure-Based Design of Transport-Specific Multitargeted One-Carbon Metabolism Inhibitors in Cytosol and Mitochondria” (Journal of Medicinal Chemistry, 2023).
Where two headings read alike, the source gives them in different places.

Experiments:
human GARFTase = molecular target: T1, human GARFTase (Homo sapiens, UniProt P22102); assay: GARFTase inhibition assay, Ki (10-formyl THF to THF, absorbance 298 nm); type: biochemical; settings: purified His-GARFTase, 40 μM 10-formyl THF, 37 °C; mean (SD), at least 3 replicates
T1 construct: formyltransferase domain of human GARFTase (residues 808–1010); made in house; host or cells: E. coli Rosetta (DE3)pLysS
T1 sequence (P22102 808-1010): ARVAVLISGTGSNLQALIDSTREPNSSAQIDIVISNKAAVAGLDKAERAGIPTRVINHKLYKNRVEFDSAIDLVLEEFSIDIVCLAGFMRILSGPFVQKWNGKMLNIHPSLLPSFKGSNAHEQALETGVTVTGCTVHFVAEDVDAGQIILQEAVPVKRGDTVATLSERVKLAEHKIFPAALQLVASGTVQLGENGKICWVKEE

[1] = test system: R2 (MTXRIIOuaR2-4) CHO cells; assay: Growth inhibition, transporter-null R2 CHO cells; type: cell-based, Chinese hamster; settings: Cricetulus griseus, 96 h, read-out: IC50 R2
KB (RFC/PCFT/FRα) cells = assay: Growth inhibition, KB nasopharyngeal carcinoma cells; type: cell-based, human; settings: folate-free RPMI 1640, 2 nM leucovorin, mean (SE)
Experimental: The CHO cells were cultured in α-minimal essential medium (MEM) supplemented with 10% bovine calf serum (Fisher Scientific), penicillin (1000 U/mL)/streptomycin (1000 μg/mL), and 2 mM L-glutamine at 37 °C with 5% CO2. All of the R2 transfected cells (PC43-10, RT16, R2/PCFT4) were cultured in complete α-MEM media plus 1 mg/mL G418. Prior to the cytotoxicity assays (see below), RT16 and D4 cells were cultured for 3 days in complete folate-free RPMI 1640 (without added folate), and R2/PCFT4 and R2 cells were cultured in complete folate-free RPMI 1640 supplemented with dialyzed fetal bovine serum (Fisher Scientific) and 25 nM leucovorin plus 1 mg/mL G418. KB cells were routinely cultured in folate-free RPMI 1640 medium, supplemented with 10% fetal bovine serum (Fisher Scientific), penicillin-streptomycin solution, and 2 mM L-glutamine at 37 °C with 5% CO2.
For growth inhibition studies, cells (CHO, KB) were plated in 96-well dishes (∼2500–5000 cells/well, total volume of 200 μL medium) over a range of antifolate concentrations.[69],[77] The medium was folate-free RPMI 1640 with 10% dialyzed serum and antibiotics supplemented with 25 nM leucovorin for experiments with R2, PC43-10, and R2/PCFT4 cells. For experiments with RT16, D4, and KB cells, cells were cultured in folate-free RPMI medium with 10% dialyzed fetal bovine serum and antibiotics; the medium was supplemented with 2 nM leucovorin. […] Incubations were routinely for up to 96 h. Viable cells (reflecting cell viability) were assayed with Cell Titer Blue reagent (Promega, Madison, WI), with fluorescence measured (590 nm emission, 560 nm excitation) with a fluorescence plate reader.

PC43-10 (RFC) CHO cells = assay: Growth inhibition, PC43-10 CHO cells expressing human RFC; type: cell-based, Chinese hamster; settings: Cricetulus griseus, 96 h, read-out: IC50 PC43-10 (RFC)
D4 (FRβ) CHO cells = assay: Growth inhibition, D4 CHO cells expressing human FRβ; type: cell-based, Chinese hamster; settings: for IC50: Cricetulus griseus, CHO
RT16 (FRα) CHO cells = assay: Growth inhibition, RT16 CHO cells expressing human FRα; type: cell-based, Chinese hamster
HPNE (RFC) cells = assay: Proliferation inhibition, HPNE normal pancreatic epithelial cells; type: cell-based; settings: Homo sapiens, folate- and glycine-free RPMI, 25 nM leucovorin
Description: (§1) The RFC-, PCFT-, and FR-null MTXRIIOua^R2–4 (R2), and RFC- (PC43-10), PCFT- (R2/PCFT4), FRα- (RT16), and FRβ- (D4) expressing CHO sublines were previously described.[62]−[64],[76] HPAC pancreatic cancer cells were generously provided by Dr. Yubin Ge (Karmanos Cancer Institute, Detroit, MI). Human pancreatic normal epithelial (HPNE) cells[67] were a gift from M. Oulette (University of Nebraska Medical Center, Omaha, NE). KB human nasopharyngeal carcinoma cells were purchased from the American Type Culture Collection (Manassas, VA). All human cell lines were validated by STR analysis by Genetica DNA Laboratories (Burlington, NC). Cell lines were tested for Mycoplasma by PCR using a Mycloplasma testing kit (Venor GeM Mycoplasma Detection Kit, Sigma). Frozen stocks were generated from authenticated Mycoplasma-free cultures.

HPAC (RFC/PCFT) cells = assay: Proliferation inhibition, HPAC pancreatic adenocarcinoma cells; type: cell-based, human; settings: HPAC cells, folate- and glycine-free RPMI, 25 nM leucovorin, mean (SE)
Description: as §1

[2] = test system: R2/PCFT4 (PCFT) CHO cells; assay: Growth inhibition, R2/PCFT4 CHO cells expressing human PCFT; type: cell-based, Chinese hamster; settings: Cricetulus griseus, 96 h, read-out: IC50 R2/PCFT4 (PCFT)
human ATIC = molecular target: T2, human ATIC (Homo sapiens, UniProt P31939); assay: AICARFTase (ATIC) inhibition assay, Ki; type: biochemical; settings: for Ki: purified His-ATIC, AICARFTase activity, 50 μM 10-formyl THF, 25 °C, mean (SD), at least 3 replicates
T2 construct: N-terminal His6-tagged full-length human ATIC; made in house; host or cells: E. coli Rosetta (DE3)pLysS
T2 sequence (P31939 whole entry): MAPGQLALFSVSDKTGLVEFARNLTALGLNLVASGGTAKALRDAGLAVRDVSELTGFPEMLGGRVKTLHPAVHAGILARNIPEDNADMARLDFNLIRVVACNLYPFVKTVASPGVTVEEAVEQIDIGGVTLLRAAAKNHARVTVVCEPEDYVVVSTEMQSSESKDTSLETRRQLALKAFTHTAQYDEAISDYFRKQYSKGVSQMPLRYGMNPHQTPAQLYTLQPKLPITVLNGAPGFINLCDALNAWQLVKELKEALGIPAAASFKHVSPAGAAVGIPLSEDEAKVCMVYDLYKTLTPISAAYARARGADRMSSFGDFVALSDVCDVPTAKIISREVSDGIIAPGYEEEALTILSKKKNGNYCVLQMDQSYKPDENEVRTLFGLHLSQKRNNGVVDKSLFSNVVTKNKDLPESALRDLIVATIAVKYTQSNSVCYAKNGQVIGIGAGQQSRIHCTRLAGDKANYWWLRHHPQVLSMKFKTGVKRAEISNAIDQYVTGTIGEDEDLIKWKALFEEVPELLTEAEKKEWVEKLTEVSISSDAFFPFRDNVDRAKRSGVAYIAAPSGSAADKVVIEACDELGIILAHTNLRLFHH
Experimental: The cells were grown at 37 °C in 1 L cultures of LB media containing […] and […] until OD600 reached 0.6. Protein expression was induced by the addition of isopropyl β-D1-thiogalactopyranoside (IPTG, 500 μM).
His-ATIC was purified by Ni-NTA chromatography (Gold Biotechnology).[36] […] His-ATIC was eluted in 1 column volume fractions, 5 times with buffer containing 300 mM imidazole, 25 mM Tris-HCl, pH 7.5, 300 mM NaCl, and 5 mM β-Me. Size exclusion chromatography on a Superdex 200 16/60 (GE Healthcare) column was used for final purification using 20 mM Tris-HCl, pH 7.5, 150 mM NaCl, 50 mM KCl, 5 mM EDTA, and 5 mM dithiothreitol.
MTHFD2 activities were assayed by a reaction with methylene THF and NAD^+. NADH production was measured by fluorescence (excitation 340 nm, emission 480 nm). Reaction conditions included 100 nM MTHFD2, 5 μM methylene THF, and concentrations of small-molecule inhibitor ranging from 0.02 nM to 2000 nM; NAD^+ (2.5 mM) was added to initiate the reaction. The reaction buffer consisted of 50 mM Tris-HCl, pH 7.5, 250 mM NaCl, 5 mM magnesium chloride, 5% glycerol, and 0.5 mM TCEP. […] To assay SHMT1 or SHMT2 (SHMT1/2) enzymes, a coupled reaction with His-MTHFD2 in 200-fold molar excess was used where the production of NADH was monitored by fluorescence with excitation at 360 nm and emission at 470 nm at 25 °C. The reactions contained 5 nM His-SHMT1/2, 50 μM THF, 20 mM serine, 10 μM His-MTHFD2, 2.5 mM NAD^+, and a range of inhibitor concentrations (final concentrations). The reactions were performed in buffer containing 20 mM sodium phosphate, pH 7.5, 100 mM KCl, 0.2 mM EDTA, and 5 mM β-Me. […] To calculate IC50 values for each inhibitor, initial velocities were graphed as a function of inhibitor concentrations and fit with a three-parameter nonlinear regression (GraphPad Prism 8.0). The equation [Ki = IC50/([S]/KM + 1)] was used to convert IC50’s to Ki values.

SHMT1 = molecular target: T3, SHMT1 (Homo sapiens, UniProt P34896); assay: SHMT1 inhibition assay coupled with MTHFD2, Ki; type: biochemical; settings: purified His-SHMT1, 50 μM THF, 25 °C; mean (SD), at least 3 replicates
T3 construct: full-length SHMT1 with an N-terminal His6-tag; made in house; host or cells: E. coli Rosetta (DE3)pLysS
T3 sequence (P34896 1-483): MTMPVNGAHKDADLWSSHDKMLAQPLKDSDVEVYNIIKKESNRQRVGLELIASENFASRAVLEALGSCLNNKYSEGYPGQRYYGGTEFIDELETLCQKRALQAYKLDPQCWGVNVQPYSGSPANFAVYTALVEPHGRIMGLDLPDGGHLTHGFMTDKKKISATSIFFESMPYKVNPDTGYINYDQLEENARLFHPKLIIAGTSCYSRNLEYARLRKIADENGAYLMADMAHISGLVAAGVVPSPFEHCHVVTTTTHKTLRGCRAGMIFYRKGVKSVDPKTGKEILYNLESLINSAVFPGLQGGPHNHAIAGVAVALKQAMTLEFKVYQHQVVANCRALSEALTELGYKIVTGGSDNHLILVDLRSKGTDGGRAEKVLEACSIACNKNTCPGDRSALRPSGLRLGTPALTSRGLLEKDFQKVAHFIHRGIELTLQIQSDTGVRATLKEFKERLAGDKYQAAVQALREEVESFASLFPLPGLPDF
Experimental: Kinetic measurements were recorded in triplicate using a flat, black-bottom, black-walled 96-well plate (Greiner Bio-One, 655900) and a BioTek Synergy Neo2 Plate Reader. […] To assay SHMT1 or SHMT2 (SHMT1/2) enzymes, a coupled reaction with His-MTHFD2 in 200-fold molar excess was used where the production of NADH was monitored by fluorescence with excitation at 360 nm and emission at 470 nm at 25 °C. The reactions contained 5 nM His-SHMT1/2, 50 μM THF, 20 mM serine, 10 μM His-MTHFD2, 2.5 mM NAD^+, and a range of inhibitor concentrations (final concentrations). The reactions were performed in buffer containing 20 mM sodium phosphate, pH 7.5, 100 mM KCl, 0.2 mM EDTA, and 5 mM β-Me. A BioTek Synergy Neo2 Plate Reader was used to record kinetic measurements in triplicate in a UV-transparent 96-well plate (Costar 3635) for GARFTase and AICARFTase assays and a black-well, black-bottom 96-well plate (Corning 3603). To calculate IC50 values for each inhibitor, initial velocities were graphed as a function of inhibitor concentrations and fit with a three-parameter nonlinear regression (GraphPad Prism 8.0). The equation [Ki = IC50/([S]/KM + 1)] was used to convert IC50’s to Ki values.

[3] = transporter-null CHO cells, 25 nM leucovorin, mean (SE)
[4] = CHO cells expressing human RFC, 25 nM leucovorin, mean (SE)
[5] = 96 h, CHO cells expressing human FRβ, 96 h, 2 nM leucovorin, mean (SE), read-out: IC50 D4 (FRβ)
[6] = Cricetulus griseus, 96 h, CHO cells expressing human FRα, 96 h, 2 nM leucovorin, mean (SE), read-out: IC50 RT16 (FRα)
[7] = CHO cells expressing human PCFT, 25 nM leucovorin, mean (SE)
[8] = CHO cells expressing human FRα, 96 h, 2 nM leucovorin, mean (SE), read-out: IC50 RT16 (FRα)

Row | SMILES | Ki (human GARFTase) | IC50 (KB (RFC/PCFT/FRα) cells; Homo sapiens, KB) | IC50 (KB (RFC/PCFT/FRα) cells) | IC50 (HPNE (RFC) cells) | IC50 (HPAC (RFC/PCFT) cells; Homo sapiens, HPAC) | IC50 [2] | IC50 [1, 3] | IC50 (PC43-10 (RFC) CHO cells; [4]) | IC50 (D4 (FRβ) CHO cells; [5]) | Ki (human ATIC) | IC50 (RT16 (FRα) CHO cells; [6]) | IC50 [2, 7] | IC50 (RT16 (FRα) CHO cells; [8]) | further results
1 | Nc1nc2ccn(CCCCc3ccc(C(=O)N[C@@H](CCC(=O)O)C(=O)O)c(F)c3)c2c(=O)[nH]1 [Compound 1, (4-(4-(2-Amino-4-oxo-3,4-dihydro-5H-pyrrolo[3,2-d]pyrimidin-5-yl)butyl)-2-fluorobenzoyl)-L-glutamic Acid] | 3130 nM | 1.3 nM | 1.25 nM | > 5000 nM | 196 nM | 479 nM |  |  |  |  |  |  |  | IC50 ([1]; CHO): > 1000 nM; IC50 (PC43-10 (RFC) CHO cells): 224 nM; IC50 (D4 (FRβ) CHO cells; read-out: IC50 FRβ (cell-based inhibition), Figure 14, from Table 3 (D4 cells)): 1 nM; IC50 (RT16 (FRα) CHO cells; Cricetulus griseus, RT16, read-out: IC50 FRα (cell-based inhibition), Figure 14, from Table 3 (RT16 cells)): 1 nM
2 | Nc1nc2ccn(CCCc3ccc(C(=O)N[C@@H](CCC(=O)O)C(=O)O)cc3)c2c(=O)[nH]1 [Compound 2] |  | 6.73 nM |  | > 5000 nM | 310 nM |  | > 1000 nM | 41.9 nM | 2.37 nM | 13400 nM | 49.9 nM | 191 nM |  | difference between D4 (FRβ) and RT16 (FRα) IC50 (D4 (FRβ) CHO cells; RT16 versus D4 CHO cells): 20- to 40 fold; IC50 (HPAC (RFC/PCFT) cells): 310 nM
3 | Nc1nc2ccn(CCCSc3ccc(C(=O)N[C@@H](CCC(=O)O)C(=O)O)cc3)c2c(=O)[nH]1 [Compound 7, (4-((3-(2-Amino-4-oxo-3,4-dihydro-5H-pyrrolo[3,2-d]pyrimidin-5-yl)propyl)thio)benzoyl)-L-glutamic Acid] |  | 31.5 nM | 31.5 nM | > 5000 nM | > 5000 nM | > 1000 nM | > 1000 nM | > 1000 nM |  | 4810 nM | < 3 nM |  | 3.13 nM | 
4 | Nc1nc2ccn(CCCCc3csc(C(=O)N[C@@H](CCC(=O)O)C(=O)O)c3F)c2c(=O)[nH]1 [Compound 14, (4-(4-(2-Amino-4-oxo-3,4-dihydro-5H-pyrrolo[3,2-d]pyrimidin-5-yl)butyl)-3-fluorothiophene-2-carbonyl)-L-glutamic Acid] | 2490 nM | 6 nM |  | > 5000 nM | 1600 nM |  | > 1000 nM | > 1000 nM | 6.2 nM | 930 nM | 19.8 nM | > 1000 nM |  | fold better than 1, ATIC (human ATIC; ratio of Ki values relative to compound 1): ~4 fold
5 | Nc1nc2ccn(CCCCc3ccc(C(=O)N[C@@H](CCC(=O)O)C(=O)O)s3)c2c(=O)[nH]1 [Compound 16] |  | 2.58 nM |  | > 5000 nM | 3210 nM |  | > 1000 nM | > 1000 nM |  |  | < 3 nM | > 1000 nM | 2.82 nM | Ki (SHMT1): 1040 nM
